Test results as given in ChEMBL document CHEMBL1765075, “Discovery and structure-activity relationship of 3-aminopyrid-2-ones as potent and selective interleukin-2 inducible T-cell kinase (Itk) inhibitors” (J Med Chem, 2011).
pKi: −log10 of the molar value.

Legend:
[1] = biological target: Platelet-derived growth factor receptor alpha (Homo sapiens, UniProt P16234); test: Inhibition of PDGFRalpha
[2] = biological target: Indoleamine 2,3-dioxygenase 1 (Homo sapiens, UniProt P14902); test: Inhibition of IDO1
[3] = biological target: Tyrosine-protein kinase Yes (Homo sapiens, UniProt P07947); test: Inhibition of YES
[4] = biological target: T1, Tyrosine-protein kinase ITK/TSK (Homo sapiens, UniProt Q08881); test: Inhibition of Itk after 40 mins by radiometric phosphate incorporation assay
T1 sequence (Q08881 whole entry): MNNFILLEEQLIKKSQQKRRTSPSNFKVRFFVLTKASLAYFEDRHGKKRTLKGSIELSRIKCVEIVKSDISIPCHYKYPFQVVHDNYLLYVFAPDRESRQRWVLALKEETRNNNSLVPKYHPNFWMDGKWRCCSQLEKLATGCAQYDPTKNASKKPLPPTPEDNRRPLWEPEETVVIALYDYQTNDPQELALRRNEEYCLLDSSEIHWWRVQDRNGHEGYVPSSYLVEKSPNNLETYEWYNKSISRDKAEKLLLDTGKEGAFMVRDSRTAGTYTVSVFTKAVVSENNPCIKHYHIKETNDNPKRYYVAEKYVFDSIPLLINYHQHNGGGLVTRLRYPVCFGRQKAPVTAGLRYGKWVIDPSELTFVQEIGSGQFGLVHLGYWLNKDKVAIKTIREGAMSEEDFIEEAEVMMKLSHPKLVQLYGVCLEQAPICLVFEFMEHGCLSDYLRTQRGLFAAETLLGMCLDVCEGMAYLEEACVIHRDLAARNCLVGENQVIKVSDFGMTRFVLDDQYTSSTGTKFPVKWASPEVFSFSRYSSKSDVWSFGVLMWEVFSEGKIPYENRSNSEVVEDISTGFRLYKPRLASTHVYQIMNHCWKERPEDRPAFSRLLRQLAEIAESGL

[5] = biological target: Vascular endothelial growth factor receptor 2 (Homo sapiens, UniProt P35968); test: Inhibition of KDR
[6] = biological target: Tyrosine-protein kinase BTK (Homo sapiens, UniProt Q06187); test: Inhibition of BTK
[7] = biological target: Serine/threonine-protein kinase Chk1 (Homo sapiens, UniProt O14757); test: Inhibition of CHK1
[8] = biological target: Tyrosine-protein kinase ZAP-70 (Homo sapiens, UniProt P43403); test: Inhibition of ZAP70
[9] = biological target: Cytoplasmic tyrosine-protein kinase BMX (Homo sapiens, UniProt P51813); test: Inhibition of BMX
[10] = biological target: Tyrosine-protein kinase Fer (Homo sapiens, UniProt P16591); test: Inhibition of FER
[11] = biological target: Death-associated protein kinase 3 (Homo sapiens, UniProt O43293); test: Inhibition of ZIPK
[12] = biological target: Serine/threonine-protein kinase TBK1 (Homo sapiens, UniProt Q9UHD2); test: Inhibition of TBK1
[13] = biological target: Tyrosine-protein kinase Fyn (Homo sapiens, UniProt P06241); test: Inhibition of FYN
[14] = biological target: Interleukin-1 receptor-associated kinase 4 (Homo sapiens, UniProt Q9NWZ3); test: Inhibition of IRAK4
[15] = biological target: T2, Receptor-type tyrosine-protein kinase FLT3 (Homo sapiens, UniProt P36888); test: Inhibition of FLT3
T2 sequence (P36888 whole entry): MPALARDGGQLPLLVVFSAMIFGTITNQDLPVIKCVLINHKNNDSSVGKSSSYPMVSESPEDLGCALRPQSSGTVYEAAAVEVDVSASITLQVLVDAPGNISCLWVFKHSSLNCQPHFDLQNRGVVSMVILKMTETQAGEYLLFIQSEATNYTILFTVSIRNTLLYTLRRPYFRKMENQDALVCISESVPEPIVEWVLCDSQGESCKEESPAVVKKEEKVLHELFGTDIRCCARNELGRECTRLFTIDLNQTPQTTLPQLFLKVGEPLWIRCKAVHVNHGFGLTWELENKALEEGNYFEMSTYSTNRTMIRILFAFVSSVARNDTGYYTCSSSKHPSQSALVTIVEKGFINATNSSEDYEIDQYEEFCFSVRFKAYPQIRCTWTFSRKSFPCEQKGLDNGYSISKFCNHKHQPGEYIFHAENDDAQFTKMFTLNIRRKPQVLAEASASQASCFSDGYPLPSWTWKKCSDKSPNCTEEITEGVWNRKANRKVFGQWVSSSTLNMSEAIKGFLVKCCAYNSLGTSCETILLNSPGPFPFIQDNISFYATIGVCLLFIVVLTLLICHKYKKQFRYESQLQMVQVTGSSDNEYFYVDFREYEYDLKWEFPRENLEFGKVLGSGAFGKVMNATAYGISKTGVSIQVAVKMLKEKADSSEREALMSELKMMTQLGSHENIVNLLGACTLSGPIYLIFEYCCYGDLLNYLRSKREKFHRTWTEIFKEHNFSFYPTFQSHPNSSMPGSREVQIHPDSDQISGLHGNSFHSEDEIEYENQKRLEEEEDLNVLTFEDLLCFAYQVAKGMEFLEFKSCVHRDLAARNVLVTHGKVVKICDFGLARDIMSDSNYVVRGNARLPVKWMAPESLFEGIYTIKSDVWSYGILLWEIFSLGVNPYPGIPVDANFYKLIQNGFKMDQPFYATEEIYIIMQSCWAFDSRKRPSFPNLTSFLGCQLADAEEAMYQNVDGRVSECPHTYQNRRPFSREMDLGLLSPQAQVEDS

[16] = biological target: Serine/threonine-protein kinase PLK3 (Homo sapiens, UniProt Q9H4B4); test: Inhibition of PLK3
Aurora kinase A = Aurora kinase A (Homo sapiens, UniProt O14965); test: Inhibition of AURORA A
[17] = biological target: Mitogen-activated protein kinase 1 (Homo sapiens, UniProt P28482); test: Inhibition of ERK2
[18] = biological target: Serine/threonine-protein kinase N2 (Homo sapiens, UniProt Q16513); test: Inhibition of PRK2
[19] = biological target: Tyrosine-protein kinase CSK (Homo sapiens, UniProt P41240); test: Inhibition of CSK
[20] = biological target: Tyrosine-protein kinase JAK3 (Homo sapiens, UniProt P52333); test: Inhibition of JAK3
[21] = biological target: T2, Receptor-type tyrosine-protein kinase FLT3; test: Inhibition of Flt3 after 20 mins by radiometric phosphate incorporation assay
[22] = biological target: Tyrosine-protein kinase Lyn (Homo sapiens, UniProt P07948); test: Inhibition of LYNA
[23] = biological target: Mitogen-activated protein kinase kinase kinase 8 (Homo sapiens, UniProt P41279); test: Inhibition of COT
[24] = Inhibition of PDK
[25] = biological target: T3, Proto-oncogene tyrosine-protein kinase Src (Homo sapiens, UniProt P12931); test: Inhibition of SRC
[26] = biological target: Ribosomal protein S6 kinase alpha-5 (Homo sapiens, UniProt O75582); test: Inhibition of MSK1
[27] = biological target: Rho-associated protein kinase 2 (Homo sapiens, UniProt O75116); test: Inhibition of ROCK2
[28] = biological target: Receptor tyrosine-protein kinase erbB-4 (Homo sapiens, UniProt Q15303); test: Inhibition of ERBB4
[29] = biological target: T3, Proto-oncogene tyrosine-protein kinase Src; test: Inhibition of Src after 10 mins by radiometric phosphate incorporation assay

T3 sequence (P12931 2-536 limits assumed): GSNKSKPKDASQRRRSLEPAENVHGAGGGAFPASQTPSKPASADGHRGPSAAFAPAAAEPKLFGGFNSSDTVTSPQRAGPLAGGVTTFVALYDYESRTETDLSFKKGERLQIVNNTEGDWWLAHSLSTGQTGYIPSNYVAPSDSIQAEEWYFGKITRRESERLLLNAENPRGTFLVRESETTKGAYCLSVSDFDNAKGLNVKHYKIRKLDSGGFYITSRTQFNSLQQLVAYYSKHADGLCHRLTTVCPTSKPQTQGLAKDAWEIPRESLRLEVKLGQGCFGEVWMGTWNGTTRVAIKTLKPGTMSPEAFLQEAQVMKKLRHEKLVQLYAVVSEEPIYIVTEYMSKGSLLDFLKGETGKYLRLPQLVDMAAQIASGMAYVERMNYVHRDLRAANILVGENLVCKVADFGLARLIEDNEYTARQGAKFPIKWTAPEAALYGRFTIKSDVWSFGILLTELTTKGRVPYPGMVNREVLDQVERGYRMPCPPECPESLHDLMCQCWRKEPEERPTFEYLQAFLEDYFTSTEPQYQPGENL
Tyrosine-protein kinase Fer, sequence (P16591 whole entry): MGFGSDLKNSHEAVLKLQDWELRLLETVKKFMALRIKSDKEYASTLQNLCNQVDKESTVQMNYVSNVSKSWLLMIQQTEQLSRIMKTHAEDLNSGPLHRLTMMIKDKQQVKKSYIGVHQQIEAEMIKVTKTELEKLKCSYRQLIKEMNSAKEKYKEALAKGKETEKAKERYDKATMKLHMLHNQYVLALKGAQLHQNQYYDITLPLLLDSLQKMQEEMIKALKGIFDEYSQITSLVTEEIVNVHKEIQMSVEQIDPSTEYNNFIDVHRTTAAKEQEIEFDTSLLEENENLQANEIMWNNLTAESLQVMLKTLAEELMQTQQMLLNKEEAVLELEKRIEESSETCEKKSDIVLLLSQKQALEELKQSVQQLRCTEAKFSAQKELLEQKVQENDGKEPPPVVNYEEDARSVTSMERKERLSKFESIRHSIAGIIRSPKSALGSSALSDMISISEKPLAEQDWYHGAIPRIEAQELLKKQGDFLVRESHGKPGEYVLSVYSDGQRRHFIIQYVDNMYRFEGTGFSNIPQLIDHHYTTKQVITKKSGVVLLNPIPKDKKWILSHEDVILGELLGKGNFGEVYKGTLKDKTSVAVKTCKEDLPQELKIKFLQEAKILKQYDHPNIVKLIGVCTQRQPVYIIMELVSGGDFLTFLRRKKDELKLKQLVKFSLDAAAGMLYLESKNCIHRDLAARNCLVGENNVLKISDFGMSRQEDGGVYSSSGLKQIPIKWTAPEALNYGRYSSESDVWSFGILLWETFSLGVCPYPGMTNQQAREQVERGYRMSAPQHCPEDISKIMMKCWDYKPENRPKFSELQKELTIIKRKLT
Ribosomal protein S6 kinase alpha-5, sequence (O75582 whole entry): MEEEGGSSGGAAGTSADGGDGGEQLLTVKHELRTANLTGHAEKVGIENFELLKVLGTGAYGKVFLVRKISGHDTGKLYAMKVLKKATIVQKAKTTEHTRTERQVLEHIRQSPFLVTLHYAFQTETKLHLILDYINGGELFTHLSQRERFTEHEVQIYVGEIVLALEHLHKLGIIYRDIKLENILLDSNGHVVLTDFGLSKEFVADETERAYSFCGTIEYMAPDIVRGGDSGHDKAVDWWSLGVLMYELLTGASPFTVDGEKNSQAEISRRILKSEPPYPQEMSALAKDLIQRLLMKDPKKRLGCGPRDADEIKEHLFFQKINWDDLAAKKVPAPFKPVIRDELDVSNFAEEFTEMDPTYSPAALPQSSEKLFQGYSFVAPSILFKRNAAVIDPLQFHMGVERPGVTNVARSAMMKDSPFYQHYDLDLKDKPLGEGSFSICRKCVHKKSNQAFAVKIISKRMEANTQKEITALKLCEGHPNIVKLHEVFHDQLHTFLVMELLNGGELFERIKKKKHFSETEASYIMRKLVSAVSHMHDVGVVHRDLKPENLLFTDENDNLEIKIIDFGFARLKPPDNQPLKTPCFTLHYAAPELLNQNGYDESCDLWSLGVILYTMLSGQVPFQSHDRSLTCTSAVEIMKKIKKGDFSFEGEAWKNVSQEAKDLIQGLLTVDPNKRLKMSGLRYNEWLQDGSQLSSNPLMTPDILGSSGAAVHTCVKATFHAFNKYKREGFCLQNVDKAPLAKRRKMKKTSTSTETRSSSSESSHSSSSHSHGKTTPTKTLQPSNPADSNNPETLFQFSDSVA
Serine/threonine-protein kinase N2, sequence (Q16513 whole entry): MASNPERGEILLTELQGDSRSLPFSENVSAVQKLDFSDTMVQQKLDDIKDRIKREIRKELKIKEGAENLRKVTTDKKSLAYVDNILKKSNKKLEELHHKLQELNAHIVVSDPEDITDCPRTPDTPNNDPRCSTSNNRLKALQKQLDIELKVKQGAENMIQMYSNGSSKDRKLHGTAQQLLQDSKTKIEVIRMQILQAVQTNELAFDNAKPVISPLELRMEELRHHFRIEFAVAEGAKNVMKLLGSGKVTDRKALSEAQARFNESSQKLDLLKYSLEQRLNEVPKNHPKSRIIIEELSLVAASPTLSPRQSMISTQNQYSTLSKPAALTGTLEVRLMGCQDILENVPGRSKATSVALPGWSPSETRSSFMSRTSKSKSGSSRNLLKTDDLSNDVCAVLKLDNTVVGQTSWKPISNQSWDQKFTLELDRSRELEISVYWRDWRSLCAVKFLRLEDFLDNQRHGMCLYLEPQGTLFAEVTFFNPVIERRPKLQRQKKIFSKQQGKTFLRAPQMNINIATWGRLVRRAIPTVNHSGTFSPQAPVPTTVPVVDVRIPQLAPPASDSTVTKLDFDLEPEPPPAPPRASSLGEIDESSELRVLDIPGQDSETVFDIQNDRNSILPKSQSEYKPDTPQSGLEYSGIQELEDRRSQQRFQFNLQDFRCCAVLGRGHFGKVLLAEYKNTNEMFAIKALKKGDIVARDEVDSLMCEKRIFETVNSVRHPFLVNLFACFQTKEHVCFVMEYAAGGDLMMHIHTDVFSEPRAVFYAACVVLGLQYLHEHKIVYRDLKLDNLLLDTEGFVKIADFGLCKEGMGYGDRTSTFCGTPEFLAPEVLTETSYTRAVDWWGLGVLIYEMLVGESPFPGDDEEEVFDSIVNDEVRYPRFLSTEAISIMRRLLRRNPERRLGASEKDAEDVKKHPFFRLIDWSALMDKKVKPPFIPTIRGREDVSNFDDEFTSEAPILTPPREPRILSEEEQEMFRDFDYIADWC
Mitogen-activated protein kinase 1, sequence (P28482 whole entry): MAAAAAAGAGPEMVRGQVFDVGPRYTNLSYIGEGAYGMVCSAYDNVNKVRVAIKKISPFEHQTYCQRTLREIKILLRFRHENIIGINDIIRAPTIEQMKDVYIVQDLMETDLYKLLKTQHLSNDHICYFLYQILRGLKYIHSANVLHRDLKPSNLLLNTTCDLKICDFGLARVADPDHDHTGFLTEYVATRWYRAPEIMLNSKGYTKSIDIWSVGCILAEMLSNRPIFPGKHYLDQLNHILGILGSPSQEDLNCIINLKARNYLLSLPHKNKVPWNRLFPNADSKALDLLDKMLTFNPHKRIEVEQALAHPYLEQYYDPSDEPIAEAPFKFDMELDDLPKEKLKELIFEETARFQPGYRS
Tyrosine-protein kinase Lyn, sequence (P07948 whole entry): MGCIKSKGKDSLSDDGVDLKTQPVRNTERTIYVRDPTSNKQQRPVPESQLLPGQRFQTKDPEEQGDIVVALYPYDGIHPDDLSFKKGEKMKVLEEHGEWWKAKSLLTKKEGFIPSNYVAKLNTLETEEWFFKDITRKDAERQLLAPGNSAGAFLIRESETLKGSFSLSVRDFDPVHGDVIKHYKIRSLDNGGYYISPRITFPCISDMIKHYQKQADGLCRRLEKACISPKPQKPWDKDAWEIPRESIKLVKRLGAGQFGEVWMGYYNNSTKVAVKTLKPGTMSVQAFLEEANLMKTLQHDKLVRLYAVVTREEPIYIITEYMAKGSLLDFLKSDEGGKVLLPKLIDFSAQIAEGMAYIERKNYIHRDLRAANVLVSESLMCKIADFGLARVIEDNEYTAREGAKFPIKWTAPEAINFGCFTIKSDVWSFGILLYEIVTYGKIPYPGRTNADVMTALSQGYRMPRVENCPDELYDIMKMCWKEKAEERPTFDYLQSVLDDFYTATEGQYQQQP
Tyrosine-protein kinase ZAP-70, sequence (P43403 whole entry): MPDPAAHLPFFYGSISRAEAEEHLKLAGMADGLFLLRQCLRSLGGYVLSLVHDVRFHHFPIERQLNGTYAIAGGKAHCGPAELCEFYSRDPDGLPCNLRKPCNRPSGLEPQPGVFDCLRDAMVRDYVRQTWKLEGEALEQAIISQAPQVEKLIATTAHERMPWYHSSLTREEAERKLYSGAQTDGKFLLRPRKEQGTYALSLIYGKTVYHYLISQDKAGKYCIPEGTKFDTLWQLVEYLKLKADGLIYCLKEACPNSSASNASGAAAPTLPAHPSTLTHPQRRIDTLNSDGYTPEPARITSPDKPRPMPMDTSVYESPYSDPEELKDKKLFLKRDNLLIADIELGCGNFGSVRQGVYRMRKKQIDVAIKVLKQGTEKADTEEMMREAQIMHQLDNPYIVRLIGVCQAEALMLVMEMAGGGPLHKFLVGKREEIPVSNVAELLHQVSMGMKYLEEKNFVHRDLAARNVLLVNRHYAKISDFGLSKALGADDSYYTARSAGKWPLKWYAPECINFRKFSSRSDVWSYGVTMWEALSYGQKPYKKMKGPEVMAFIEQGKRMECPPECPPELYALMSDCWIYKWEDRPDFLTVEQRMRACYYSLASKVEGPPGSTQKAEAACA
Indoleamine 2,3-dioxygenase 1, sequence (P14902 whole entry): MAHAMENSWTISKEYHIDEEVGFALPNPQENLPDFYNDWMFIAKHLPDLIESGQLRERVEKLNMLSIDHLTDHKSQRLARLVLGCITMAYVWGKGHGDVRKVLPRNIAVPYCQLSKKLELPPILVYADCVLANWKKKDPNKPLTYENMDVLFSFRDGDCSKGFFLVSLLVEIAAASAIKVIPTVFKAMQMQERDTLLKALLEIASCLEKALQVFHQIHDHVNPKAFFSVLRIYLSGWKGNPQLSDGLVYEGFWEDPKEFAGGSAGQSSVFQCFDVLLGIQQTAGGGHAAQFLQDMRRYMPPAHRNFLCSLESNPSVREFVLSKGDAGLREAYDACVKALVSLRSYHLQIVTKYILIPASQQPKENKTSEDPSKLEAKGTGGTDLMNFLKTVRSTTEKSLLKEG

SMILES: CNc1cncc(-c2c[nH]c(=O)c(NC(=O)c3ccc(N4CCC[C@H]4CN4CCCC4)cc3)c2)n1
- pKi [1]: < 6.00
- pKi [2]: < 6.00
- pKi [3]: < 6.00
- pKi [4]: 8.15
- pKi [5]: 6.37
- pKi [6]: < 6.00
- pKi [7]: < 6.00
- pKi [8]: < 5.70
- pKi [9]: < 6.00
- pKi [10]: < 6.00
- pKi [11]: < 6.00
- pKi [12]: < 6.00
- pKi [13]: < 6.00
- pKi [14]: < 6.00
- pKi [15]: 7.70
- pKi [16]: < 6.00
- pKi (Aurora kinase A): < 6.00
- pKi [17]: < 5.70
- pKi [18]: < 6.00
- pKi [19]: < 6.00
- pKi [20]: 6.46
- pKi [21]: 7.70
- pKi [22]: < 6.00
- pKi [23]: < 6.00
- pKi [24]: < 6.00
- pKi [25]: 6.92
- pKi [26]: < 6.00
- pKi [27]: < 6.00
- pKi [28]: < 6.00
- pKi [29]: 6.92
